Source: US20240381872A1, “SUBSTITUTED 2,3-DIHYDRO[1,3]THIAZOLO[4,5-B]PYRIDINES, SALTS THEREOF AND THEIR USE AS HERBICIDALLY ACTIVE SUBSTANCES” (BAYER AKTIENGESELLSCHAFT, priority 2021, published 2024)

Experiments:
Format in all cases: in vivo
[1] = tested on: Echinochloa crus-galli (ECHCG); assay: Herbicidal pre-emergence action, section A (Table A3); details: visual grading after ca. 3 weeks vs untreated controls; for pre-emergence activity against ECHCG in %: application rate 1280 g/ha
Text: (§1) Seeds of mono- and dicotyledonous weed plants were sown in plastic pots (double sowings with one species of mono- and one species of dicotyledonous weed plants per pot), in sandy loam, and covered with soil. The compounds according to the invention, formulated in the form of wettable powders (WP) or as emulsifiable concentrates (EC), were applied to the surface of the covering soil as aqueous suspension or emulsion, with the addition of 0.5% of an additive, at an application rate of 600 l of water per hectare (converted). Following treatment, the pots were placed in a greenhouse and kept under optimum growth conditions for the test plants. The visual grading of the damage to the test plants was carried out after ca. 3 weeks in comparison to untreated controls (herbicidal effect in percent (%): 100% effect=plants have died off, 0% effect=as control plants).

[2] = tested on: Amaranthus retroflexus (AMARE); assay: Herbicidal post-emergence action, section B (Table B11); details: application rate 1280 g/ha, visual rating about 3 weeks after treatment vs untreated controls
Protocol: (§2) Seeds of mono- and dicotyledonous weed plants were placed in plastic pots in sandy loam soil (doubly sown with in each case one species of mono- or dicotyledonous weed plants per pot), covered with soil and cultivated in a greenhouse under controlled growth conditions. 2 to 3 weeks after sowing, the test plants were treated at the one-leaf stage. The compounds of the invention, formulated in the form of wettable powders (WP) or as emulsion concentrates (EC), were applied onto the green parts of the plants as aqueous suspension or emulsion with addition of 0.5% additive at a water application rate of 600 liters per hectare (converted). After the test plants had been kept in the greenhouse under optimum growth conditions for about 3 weeks, the activity of the preparations was rated visually in comparison to untreated controls. For example, 100% activity=the plants have died, 0% activity=like control plants.

[3] = tested on: Matricaria inodora (MATIN); assay: Herbicidal pre-emergence action, section A (Table A6); details: visual grading after ca. 3 weeks vs untreated controls
Text: as §1

[4] = tested on: Echinochloa crus-galli (ECHCG); assay: Herbicidal post-emergence action, section B (Table B3); details: rated visually after about 3 weeks
Protocol: as §2

Veronica persica (VERPE) [5] = assay: Herbicidal post-emergence action, section B (Table B10); details: application rate 1280 g/ha; visual rating about 3 weeks after treatment vs untreated controls
Protocol: as §2

Kochia scoparia (KCHSC) [6] = assay: Herbicidal post-emergence action, section B (Table B4); details: application rate 1280 g/ha; visual rating about 3 weeks after treatment vs untreated controls
Protocol: as §2

Kochia scoparia (KCHSC) [7] = assay: Herbicidal pre-emergence action, section A (Table A4); details: visual grading after ca. 3 weeks vs untreated controls
Text: as §1

Setaria viridis (SETVI) [8] = assay: Herbicidal pre-emergence action, section A (Table A8)
Text: as §1

Poa annua (POAAN) = assay: Herbicidal pre-emergence action, section A (Table A7); details: visual grading after ca. 3 weeks vs untreated controls
Text: as §1

Stellaria media (STEME) [9] = assay: Herbicidal pre-emergence action, section A (Table A9)
Text: as §1

[10] = tested on: Amaranthus retroflexus (AMARE); assay: Herbicidal pre-emergence action, section A (Table A11)
Text: as §1

Veronica persica (VERPE) [11] = assay: Herbicidal pre-emergence action, section A (Table A10)
Text: as §1

[12] = tested on: Alopecurus myosuroides (ALOMY); assay: Herbicidal pre-emergence action, section A (Table A2); details: application rate 1280 g/ha; visual grading after ca. 3 weeks vs untreated controls
Text: as §1

Lolium rigidum (LOLRI) = assay: Herbicidal pre-emergence action, section A (Table A5); details: visual grading after ca. 3 weeks vs untreated controls
Text: as §1

[13] = tested on: Digitaria sanguinalis (DIGSA); assay: Herbicidal pre-emergence action, section A (Table A12)
Text: as §1

Stellaria media (STEME) [14] = assay: Herbicidal post-emergence action, section B (Table B9); details: application rate 1280 g/ha, visual rating about 3 weeks after treatment vs untreated controls
Protocol: as §2

Setaria viridis (SETVI) [15] = assay: Herbicidal post-emergence action, section B (Table B8); details: application rate 1280 g/ha, visual rating about 3 weeks after treatment vs untreated controls
Protocol: as §2

CCOC(=O)c1cc2c(nc1-c1ccccc1F)NCS2 [Example I-004]
pre-emergence activity against ECHCG in % [1]: 100% | post-emergence activity against AMARE in % [2]: 100% | pre-emergence activity against MATIN in % ([3]; application rate 1280 g/ha): 90% | post-emergence activity against ECHCG in % ([4]; application rate 1280 g/ha): 90% | post-emergence activity against VERPE in % (Veronica persica (VERPE) [5]): 90% | post-emergence activity against KCHSC in % (Kochia scoparia (KCHSC) [6]): 90% | pre-emergence activity against KCHSC in % (Kochia scoparia (KCHSC) [7]; application rate 1280 g/ha): 90% | pre-emergence activity against SETVI in % (Setaria viridis (SETVI) [8]; application rate 1280 g/ha): 100% | pre-emergence activity against POAAN in % (Poa annua (POAAN); application rate 1280 g/ha): 100%

CCCS(=O)(=O)N1CSc2cc(C)c(-c3cccc(Cl)c3F)nc21 [Example I-112]
pre-emergence activity against STEME in % (Stellaria media (STEME) [9]; application rate 1280 g/ha): 90% | post-emergence activity against ECHCG in % ([4]; application rate 320 g/ha): 100% | pre-emergence activity against AMARE in % ([10]; application rate 1280 g/ha): 90% | pre-emergence activity against SETVI in % (Setaria viridis (SETVI) [8]; application rate 1280 g/ha): 90% | pre-emergence activity against VERPE in % (Veronica persica (VERPE) [11]; application rate 1280 g/ha): 90% | pre-emergence activity against POAAN in % (Poa annua (POAAN); application rate 1280 g/ha): 100%

CS(=O)(=O)N1CSc2cc(Br)c(-c3cccc(Cl)c3F)nc21 [Example I-116]
post-emergence activity against KCHSC in % (Kochia scoparia (KCHSC) [6]): 90% | pre-emergence activity against ALOMY in % [12]: 90% | pre-emergence activity against SETVI in % (Setaria viridis (SETVI) [8]; application rate 1280 g/ha): 90% | pre-emergence activity against VERPE in % (Veronica persica (VERPE) [11]; application rate 1280 g/ha): 90%

CCCS(=O)(=O)N1CSc2cc(C)c(-c3cccc(F)c3F)nc21 [Example I-145]
pre-emergence activity against STEME in % (Stellaria media (STEME) [9]; application rate 320 g/ha): 90% | pre-emergence activity against ECHCG in % [1]: 100% | pre-emergence activity against LOLRI in % (Lolium rigidum (LOLRI); application rate 1280 g/ha): 100% | pre-emergence activity against MATIN in % ([3]; application rate 1280 g/ha): 90% | post-emergence activity against ECHCG in % ([4]; application rate 1280 g/ha): 90% | pre-emergence activity against DIGSA in % ([13]; application rate 1280 g/ha): 100% | pre-emergence activity against AMARE in % ([10]; application rate 1280 g/ha): 90% | pre-emergence activity against KCHSC in % (Kochia scoparia (KCHSC) [7]; application rate 320 g/ha): 90% | pre-emergence activity against ALOMY in % [12]: 90% | pre-emergence activity against SETVI in % (Setaria viridis (SETVI) [8]; application rate 1280 g/ha): 100% | post-emergence activity against STEME in % (Stellaria media (STEME) [14]): 90% | pre-emergence activity against VERPE in % (Veronica persica (VERPE) [11]; application rate 1280 g/ha): 90% | pre-emergence activity against POAAN in % (Poa annua (POAAN); application rate 320 g/ha): 100%

Cc1cc2c(nc1-c1cccc(F)c1F)N(S(C)(=O)=O)CS2 [Example I-147, 5-(2,3-difluorophenyl)-6-methyl-3-(methylsulfonyl)-2,3-dihydro[1,3]thiazolo[4,5-b]pyridine]
pest or weed control at 1280 g/ha (Stellaria media (STEME) [9]; Stellaria media, 504 h, application rate 1280 g/ha, read-out: pre-emergence activity against STEME in %): 90% | pest or weed control at 320 g/ha ([1]; Echinochloa crus-galli, pre-emergence, 504 h, application rate 320 g/ha, read-out: pre-emergence activity against ECHCG in %): 100% | pest or weed control at 1280 g/ha (Lolium rigidum (LOLRI); Lolium rigidum, pre-emergence, 504 h, application rate 1280 g/ha, read-out: pre-emergence activity against LOLRI in %): 90% | pest or weed control at 1280 g/ha ([2]; Amaranthus retroflexus, post-emergence, 504 h, read-out: post-emergence activity against AMARE in %): 90% | pest or weed control at 1280 g/ha ([3]; Tripleurospermum inodorum, pre-emergence, 504 h, application rate 1280 g/ha, read-out: pre-emergence activity against MATIN in %): 90% | pest or weed control at 320 g/ha ([13]; Digitaria sanguinalis, 504 h, application rate 320 g/ha, read-out: pre-emergence activity against DIGSA in %): 90% | pest or weed control at 320 g/ha ([10]; Amaranthus retroflexus, 504 h, application rate 320 g/ha, read-out: pre-emergence activity against AMARE in %): 90% | pest or weed control at 320 g/ha (Kochia scoparia (KCHSC) [7]; Bassia scoparia, pre-emergence, 504 h, application rate 320 g/ha, read-out: pre-emergence activity against KCHSC in %): 90% | pest or weed control at 320 g/ha (Setaria viridis (SETVI) [8]; Setaria viridis, 504 h, application rate 320 g/ha, read-out: pre-emergence activity against SETVI in %): 100% | pest or weed control at 1280 g/ha (Stellaria media (STEME) [14]; Stellaria media, post-emergence, 504 h, read-out: post-emergence activity against STEME in %): 90% | pest or weed control at 320 g/ha (Veronica persica (VERPE) [11]; Veronica persica, 504 h, application rate 320 g/ha, read-out: pre-emergence activity against VERPE in %): 90% | pest or weed control at 320 g/ha (Poa annua (POAAN); Poa annua, pre-emergence, 504 h, application rate 320 g/ha, read-out: pre-emergence activity against POAAN in %): 100% | pest or weed control at 1280 g/ha (Setaria viridis (SETVI) [15]; Setaria viridis, post-emergence, 504 h, read-out: post-emergence activity against SETVI in %): 90%

COC(=O)CCC(=O)N1CSc2cc(C)c(-c3cccc(F)c3F)nc21 [Example I-153]
pre-emergence activity against STEME in % (Stellaria media (STEME) [9]; application rate 320 g/ha): 90% | pre-emergence activity against ECHCG in % [1]: 90% | pre-emergence activity against LOLRI in % (Lolium rigidum (LOLRI); application rate 320 g/ha): 90% | pre-emergence activity against MATIN in % ([3]; application rate 1280 g/ha): 90% | pre-emergence activity against DIGSA in % ([13]; application rate 320 g/ha): 90% | pre-emergence activity against AMARE in % ([10]; application rate 320 g/ha): 90% | pre-emergence activity against KCHSC in % (Kochia scoparia (KCHSC) [7]; application rate 320 g/ha): 90% | pre-emergence activity against SETVI in % (Setaria viridis (SETVI) [8]; application rate 1280 g/ha): 100% | post-emergence activity against STEME in % (Stellaria media (STEME) [14]): 90% | pre-emergence activity against VERPE in % (Veronica persica (VERPE) [11]; application rate 1280 g/ha): 90% | pre-emergence activity against POAAN in % (Poa annua (POAAN); application rate 1280 g/ha): 100% | post-emergence activity against SETVI in % (Setaria viridis (SETVI) [15]): 90%

CC(=O)N1CSc2cc(C)c(-c3cc(F)ccc3F)nc21 [Example I-168]
pre-emergence activity against STEME in % (Stellaria media (STEME) [9]; application rate 320 g/ha): 90% | pre-emergence activity against ECHCG in % [1]: 100% | pre-emergence activity against LOLRI in % (Lolium rigidum (LOLRI); application rate 320 g/ha): 90% | pre-emergence activity against MATIN in % ([3]; application rate 320 g/ha): 90% | post-emergence activity against VERPE in % (Veronica persica (VERPE) [5]): 90% | pre-emergence activity against DIGSA in % ([13]; application rate 320 g/ha): 100% | post-emergence activity against KCHSC in % (Kochia scoparia (KCHSC) [6]): 90% | pre-emergence activity against AMARE in % ([10]; application rate 320 g/ha): 90% | pre-emergence activity against KCHSC in % (Kochia scoparia (KCHSC) [7]; application rate 320 g/ha): 90% | pre-emergence activity against ALOMY in % [12]: 90% | pre-emergence activity against SETVI in % (Setaria viridis (SETVI) [8]; application rate 320 g/ha): 100% | pre-emergence activity against VERPE in % (Veronica persica (VERPE) [11]; application rate 320 g/ha): 90% | pre-emergence activity against POAAN in % (Poa annua (POAAN); application rate 320 g/ha): 100%
